Assay results from publication PMC11435058, “Synthesis of New Thiazole-Privileged Chalcones as Tubulin Polymerization Inhibitors with Potential Anticancer Activities” (Pharmaceuticals, 2024).
Read-outs that look alike come from different tables or passages of the source.

What was measured:
SK-OV-3 = test: NCI-60 anticancer screen (SRB; single dose and five doses); settings: Homo sapiens
COLO 205 = test: as above; settings: Homo sapiens
SK-MEL-28 = test: as above; settings: Homo sapiens
BT-549 = test: as above; settings: Homo sapiens
HOP-92 = test: as above; settings: Homo sapiens
PC-3 = test: as above; settings: Homo sapiens
NCI-H322M = test: as above; settings: Homo sapiens
ACHN = test: as above; settings: Homo sapiens
NCI/ADR-RES = test: as above; settings: Homo sapiens
RXF 393 = test: as above; settings: Homo sapiens
HOP-62 = test: as above; settings: Homo sapiens
HCT-116 = test: as above; settings: Homo sapiens
A549/ATCC = test: as above; settings: Homo sapiens
SNB-19 = test: cells; settings: Homo sapiens
OVCAR-8 = test: NCI-60 anticancer screen (SRB; single dose and five doses); settings: Homo sapiens
RPMI-8226 = test: as above; settings: Homo sapiens
[1] = test system: 60 human tumor cell lines panel; test: NCI-60 anticancer screen, whole panel (means and ranges over the cell lines); format: cell-based; settings: for activity at 10 µM: Homo sapiens, 48 h, dose of 10 μM
NCI-H460 = test: NCI-60 anticancer screen (SRB; single dose and five doses); settings: Homo sapiens
NCI-H226 = test: as above; settings: Homo sapiens
MDA-MB-468 = test: as above; format: cell-based, human
In short: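 NCI panel of about 60 human tumor cell lines treated with compound at a single concentration (10μM) for 48 h. Growth measured by SRB protein staining and expressed as percent growth of treated versus untreated control cells.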

NCI-H522 = test: as above; settings: Homo sapiens
HCC-2998 = test: as above; settings: Homo sapiens, HCC 2998, 48 h, read-out: Growth Percentage
MOLT-4 = test: as above; settings: Homo sapiens
A498 = test: as above; settings: Homo sapiens
MALME-3M = test: as above; settings: Homo sapiens
[2] = 48 h, read-out: Growth Percentage
[3] = five doses, mean graph midpoint over all cell lines

Compound: Cc1[nH]c(=S)sc1C(=O)/C=C/c1ccc(Cl)cc1 [2f, (E)-3-(4-Chlorophenyl)-1-(4-Methyl-2-Thioxo-2,3-Dihydrothiazol-5-yl)Prop-2-En-1-One]
- GI50 (SK-OV-3; SK-OV-3): 15.8 µM
- IC50 (SK-OV-3; SK-OV-3): 30.2 µM
- activity at 10 µM (SK-OV-3; SK-OV-3, 48 h, read-out: Growth Percentage): 60.8%
- CC50 (SK-OV-3; SK-OV-3, read-out: LC50): 66.1 µM
- IC (TGI) (SK-OV-3; SK-OV-3, read-out: TGI): 32.4 µM
- GI50 (COLO 205; COLO 205): 19.1 µM
- IC50 (COLO 205; COLO 205): 33.9 µM
- activity at 10 µM (COLO 205; COLO 205, 48 h, read-out: Growth Percentage): 78.2%
- CC50 (COLO 205; COLO 205, read-out: LC50): 74.1 µM
- IC (TGI) (COLO 205; COLO 205, read-out: TGI): 38 µM
- GI50 (SK-MEL-28; SK-MEL-28): 14.5 µM
- IC50 (SK-MEL-28; SK-MEL-28): 26.3 µM
- activity at 10 µM (SK-MEL-28; SK-MEL-28, 48 h, read-out: Growth Percentage): 45.7%
- CC50 (SK-MEL-28; SK-MEL-28, read-out: LC50): 53.7 µM
- IC (TGI) (SK-MEL-28; SK-MEL-28, read-out: TGI): 28.2 µM
- GI50 (BT-549; BT-549): 5.75 µM
- IC50 (BT-549; BT-549): 20.9 µM
- activity at 10 µM (BT-549; BT-549, 48 h, read-out: Growth Percentage): -14.4%
- IC (TGI) (BT-549; BT-549, read-out: TGI): 20.4 µM
- GI50 (HOP-92; HOP-92): 11.5 µM
- IC50 (HOP-92; HOP-92): 30.2 µM
- activity at 10 µM (HOP-92; HOP-92, 48 h, read-out: Growth Percentage): 34.8%
- CC50 (HOP-92; HOP-92, read-out: LC50): 63.1 µM
- IC (TGI) (HOP-92; HOP-92, read-out: TGI): 26.9 µM
- GI50 (PC-3; PC-3): 5.37 µM
- IC50 (PC-3; PC-3): 9.77 µM
- CC50 (PC-3; PC-3, read-out: LC50): 81.3 µM
- IC (TGI) (PC-3; PC-3, read-out: TGI): 23.4 µM
- GI50 (NCI-H322M): 10.2 µM
- IC50 (NCI-H322M): 19.9 µM
- CC50 (NCI-H322M; read-out: LC50): 51.3 µM
- IC (TGI) (NCI-H322M; read-out: TGI): 22.9 µM
- GI50 (ACHN): 13.8 µM
- IC50 (ACHN): 24 µM
- activity at 10 µM (ACHN; [2]): 34.6%
- CC50 (ACHN; read-out: LC50): 51.3 µM
- IC (TGI) (ACHN; read-out: TGI): 26.9 µM
- GI50 (NCI/ADR-RES): 3.72 µM
- IC50 (NCI/ADR-RES): 7.08 µM
- activity at 10 µM (NCI/ADR-RES; [2]): -8.39%
- CC50 (NCI/ADR-RES; read-out: LC50): 77.6 µM
- IC (TGI) (NCI/ADR-RES; read-out: TGI): 17.4 µM
- GI50 (RXF 393; RXF 393): 5.89 µM
- IC50 (RXF 393; RXF 393): 24 µM
- activity at 10 µM (RXF 393; RXF 393, 48 h, read-out: Growth Percentage): 9.78%
- CC50 (RXF 393; RXF 393, read-out: LC50): 49 µM
- IC (TGI) (RXF 393; RXF 393, read-out: TGI): 19.9 µM
- GI50 (HOP-62; HOP-62): 5.37 µM
- IC50 (HOP-62; HOP-62): 12 µM
- activity at 10 µM (HOP-62; HOP-62, 48 h, read-out: Growth Percentage): -2.73%
- CC50 (HOP-62; HOP-62, read-out: LC50): 72.4 µM
- IC (TGI) (HOP-62; HOP-62, read-out: TGI): 22.9 µM
- GI50 (HCT-116; HCT-116): 6.61 µM
- IC50 (HCT-116; HCT-116): 7.94 µM
- activity at 10 µM (HCT-116; HCT-116, 48 h, read-out: Growth Percentage): 6.98%
- CC50 (HCT-116; HCT-116, read-out: LC50): 74.1 µM
- IC (TGI) (HCT-116; HCT-116, read-out: TGI): 24.6 µM
- GI50 (A549/ATCC; A549): 10.7 µM
- IC50 (A549/ATCC; A549): 16.2 µM
- activity at 10 µM (A549/ATCC; A549, 48 h, read-out: Growth Percentage): 61.1%
- CC50 (A549/ATCC; A549, read-out: LC50): 52.5 µM
- IC (TGI) (A549/ATCC; A549, read-out: TGI): 24 µM
- GI50 (SNB-19; SNB-19): 12 µM
- IC50 (SNB-19; SNB-19): 22.4 µM
- activity at 10 µM (SNB-19; SNB-19, 48 h, read-out: Growth Percentage): 15.8%
- CC50 (SNB-19; SNB-19, read-out: LC50): 50.1 µM
- IC (TGI) (SNB-19; SNB-19, read-out: TGI): 24.6 µM
- GI50 (OVCAR-8; OVCAR-8): 8.51 µM
- IC50 (OVCAR-8; OVCAR-8): 14.5 µM
- activity at 10 µM (OVCAR-8; OVCAR-8, 48 h, read-out: Growth Percentage): 4.96%
- CC50 (OVCAR-8; OVCAR-8, read-out: LC50): 55 µM
- IC (TGI) (OVCAR-8; OVCAR-8, read-out: TGI): 22.9 µM
- GI50 (RPMI-8226; RPMI-8226): 2.4 µM
- activity at 10 µM (RPMI-8226; RPMI-8226, 48 h, read-out: Growth Percentage): 13.8%
- IC50 (RPMI-8226; RPMI-8226, RPMI-8226, five doses): 2.4 µM
- IC50 (RPMI-8226; RPMI-8226, five-dose, Leukemia RPMI-8226): 4.68 µM
- CC50 (RPMI-8226; RPMI-8226, read-out: LC50): > 100 µM
- IC (TGI) (RPMI-8226; RPMI-8226, read-out: TGI): 8.32 µM
- activity at 10 µM ([1]; mean over the tested cell lines, read-out: Mean growth percentage): 23.7%
- activity at 10 µM ([1]; range over the cell lines, read-out: growth percentages against most of the tested cells (lowest to highest)): -48.1 to 106%
- Log10GI50 _MID [1, 3]: -5.13 Molar
- Log10LC50 _MID [1, 3]: -4.23 Molar
- Log10TGI _MID [1, 3]: -4.63 Molar
- GI50 (NCI-H460; NCI-H460): 12 µM
- IC50 (NCI-H460; NCI-H460): 19.1 µM
- activity at 10 µM (NCI-H460; NCI-H460, 48 h, read-out: Growth Percentage): 82.6%
- CC50 (NCI-H460; NCI-H460, read-out: LC50): 69.2 µM
- IC (TGI) (NCI-H460; NCI-H460, read-out: TGI): 28.8 µM
- GI50 (NCI-H226; NCI-H226): 13.8 µM
- IC50 (NCI-H226; NCI-H226): 36.3 µM
- activity at 10 µM (NCI-H226; NCI-H226, 48 h, read-out: Growth Percentage): 20.5%
- CC50 (NCI-H226; NCI-H226, read-out: LC50): > 100 µM
- IC (TGI) (NCI-H226; NCI-H226, read-out: TGI): 38 µM
- activity at 10 µM (MDA-MB-468; Homo sapiens, 48 h, MDA-MB-468, dose of 10 μM, read-out: Growth Percentage): -21.2%
- IC50 (MDA-MB-468; Homo sapiens, MDA-MB-468, MDA-MB-468, Breast Cancer, five dose): 12 µM
- IC50 (MDA-MB-468; Homo sapiens, MDA-MB-468, MDA-MB-468, five doses): 2.51 µM
- GI50 (MDA-MB-468; Homo sapiens, MDA-MB-468, Breast Cancer, five dose): 2.51 µM
- CC50 (MDA-MB-468; Homo sapiens, MDA-MB-468, Breast Cancer, five dose, read-out: LC50 (the source's name)): 30.2 µM
- TGI (MDA-MB-468; MDA-MB-468, Breast Cancer, five dose): 8.32 µM
- GI50 (NCI-H522; NCI-H522): 11.8 µM
- IC50 (NCI-H522; NCI-H522): 22.4 µM
- activity at 10 µM (NCI-H522; NCI-H522, 48 h, read-out: Growth Percentage): 13.5%
- CC50 (NCI-H522; NCI-H522, read-out: LC50): 52.5 µM
- IC (TGI) (NCI-H522; NCI-H522, read-out: TGI): 25.1 µM
- activity at 10 µM (HCC-2998): -21.3%
- GI50 (MOLT-4; MOLT-4): 14.5 µM
- IC50 (MOLT-4; MOLT-4): 24.6 µM
- activity at 10 µM (MOLT-4; MOLT-4, 48 h, read-out: Growth Percentage): 10.2%
- CC50 (MOLT-4; MOLT-4, read-out: LC50): > 100 µM
- IC (TGI) (MOLT-4; MOLT-4, read-out: TGI): 79.4 µM
- GI50 (A498; A498): 15.8 µM
- IC50 (A498; A498): 30.9 µM
- activity at 10 µM (A498; A498, 48 h, read-out: Growth Percentage, A498, dose of 10 μM): 106%
- CC50 (A498; A498, read-out: LC50): 56.2 µM
- IC (TGI) (A498; A498, read-out: TGI): 29.5 µM
- GI50 (MALME-3M): 14.5 µM
- IC50 (MALME-3M): 30.9 µM
- CC50 (MALME-3M; read-out: LC50): 75.9 µM
- IC (TGI) (MALME-3M; read-out: TGI): 33.1 µM
